US7601717B2, “Pterin analogs” (BioMarin Pharmaceutical Inc., priority 2008, dated 2009)
Where a name gives a salt, the structure may show the parent alone.

Columns and labels:
[1] = Pharmacokinetics and bioavailability, single intravenous or oral doses, partial Latin square crossover; assay type: in vivo, male cynomolgus monkeys; details: oral 40 mg/kg, n=6
Method: This study was to determine the pharmacokinetics and relative bioavailability of BH4 when given as parent BH4 or an analog of BH4 to male cynomolgus monkeys as single intravenous or oral doses in a partial Latin square crossover design.
Six, male, non-naïve cynomolgus monkeys were fasted overnight prior to dosing through approximately 4 hours postdose. Individual doses were calculated based on body weights recorded on each day of dose administration. Five experimental groups of monkeys were evaluated using a partial Latin square crossover design: Group 1-2 mg/kg BH4 by IV; Group 2-40 mg/kg BH4 by oral gavage; Group 3-2 mg/kg BH4 analog by IV; Group 4-5 mg/kg BH4 analog by oral gavage; Group 5-20 mg/kg BH4 analog by oral gavage. The doses of BH4 analog were prepared as mg/kg equivalents of BH4 (calculated using BH4 and BH4 analog 2HCl molecular weights). The partial Latin square crossover design was used to minimize dose sequence effect on interanimal variability for statistical purposes. The monkeys received their respective dose of BH4 intravenously (2 mL/kg, dissolved in 100 μM ascorbic acid and 5% mannitol in sterile water for injection, SWFI), Example 5 intravenously (2 mL/kg, dissolved in 100 μM ascorbic acid and 5% mannitol in citrate buffer, pH 3) or BH4 or Example 5 by oral gavage (4 mL/kg, dissolved in 100 μM ascorbic acid in SWFI). Prior to use, all intravenous dose formulations were filtered into the final dosing container using a 0.22-micron syringe filter (Millex GS or GV; Millipore).
For intravenous administration, blood (approximately 1 mL) was collected from each animal predose and at 0.083, 0.25, 0.5, 1, 2, 3, 4, 6, 8, 12, 18, and 24 hours postdose. For oral administration, blood (approximately 1 mL) was collected from each animal predose and at 0.25, 0.5, 1, 2, 3, 4, 6, 8, 12, 18, and 24 hours postdose. Blood was collected into tubes containing K2-EDTA anticoagulant, which was maintained in chilled condition, and centrifuged to obtain plasma. Centrifugation began within 30 minutes of collection. Three, 100-μL aliquots of each plasma sample were promptly transferred following centrifugation into individual tubes containing 0.1% (w/v) dithioerythritol (DTE) for storage. Once the plasma aliquot was added, each tube was vortexed briefly to mix then immediately placed on dry ice.

eNOS = eNOS (Homo sapiens, UniProt P29474); test: Cell-free eNOS activity assay reconstituted from purified components; assay type: biochemical; details: 1, 10, 100 μM, 90 minutes at 37° C., nitrite by DAN fluorescence
Method: Also tested was the effect of BH4 analogs compared to free BH4 on stimulation of eNOS activity in a cell-free assay system reconstituted from purified components. 90 μL of reaction mixture (25 mM Tris-HCL, pH7.4, 1 μM FAD, 1 μM FMN, 100 μM L-Arginine, 2.5 mM CaCl2, 1 mM NADPH, 0.04 mg/ml Calmodulin) was mixed with 5 μl of eNOS (15 units/ml) and 5 μl of BH4 or BH4 analogs (1, 10, 100 μM), followed by incubation in a 37° C. water bath for 90 minutes. Then 100 μl of water and 20 μl of the nitrite fluorescent probe DAN (2,3-diaminonaphthalene, 316 μM) were added to each reaction and incubated at room temperature for 10 minutes. The dye DAN reacts with nitrite to yield the fluorescent product naphthotriazole. The reaction was then stopped by adding 10 μl of NaOH (2.8 M), and the fluorescence of the samples was read using excitation frequency 375 nm and emission frequency 415 nm.

[2] = test system: Spontaneously Hypertensive rats (SHR); test: Anti-hypertensive effect, tail-cuff systolic blood pressure in SHR; assay type: in vivo, rat
Method: This study was to determine if the BH4 analogs have a similar hypotensive effect and to determine the steady state pharmacokinetics (PK) profiles of plasma BH4 concentrations.
Male Wistar-Kyoto (WKY) rats and SHR rats (Elevage Janvier, France, 7 weeks old) were housed seven days prior to the beginning of experiments with free access to standard chow and water and maintained on an inversed 12 h dark/light cycle (10:00/22:00). After a one week acclimation period, the animals were trained to the tail-cuff system during one week (3 sessions). The following week, two baseline measurements of blood pressure were performed.
The rats (10 weeks old) then received respective treatments of water, vehicle, 2, 10, or 30 mg/kg/day of BH4 analog (Example 5, Val-BH4) or 100 mg/kg/day BH4 by oral gavage (8 mL/kg, dissolved in 100 μM ascorbic acid) performed once a day during 21 days of treatment. The doses of BH4 analog were prepared as mg/kg equivalents of BH4 (calculated using BH4 and BH4 analog 2HCl molecular weights). Body weight was monitored 3 times per week and the most recent body weight was used to adjust drug and vehicle daily intake. Seven experimental groups of rats were evaluated: Group 1—normotensive WKY rats and water gavage; Group 2—hypertensive SHR rats and water gavage; Group 3—hypertensive SHR rats and vehicle gavage; Group 4—hypertensive SHR rats and BH4 100 mg/kg/day gavage; Group 5—hypertensive SHR rats and BH4 analog 2 mg/kg/day gavage; Group 6—hypertensive SHR rats and BH4 analog 10 mg/kg/day gavage; Group 7—hypertensive SHR rats and 30 mg/kg/day BH4 analog gavage. To account for animal loss or animal disqualification during experimental handling, 10 rats were used in each group, with the expectation to obtain interpretable results for at least 8. Systolic blood pressure (SBP) and heart rate (HR) were measured twice weekly during the 3-week treatment period.
Systolic blood pressure (SBP) and heart rate (HR) were measured using the tail-cuff method, twice before the beginning of the treatment and twice weekly during the 3 week treatment period (6 measurements during the treatment period). Rats were placed in a plastic restraint and warmed to […]. A pneumatic pulse sensor was attached to the tail. After cuff inflation, SBP was measured and HR was determined by counting pulse numbers per minute. Data for each rat was taken an average of at least 4 stable readings. At least 10 cuff inflations were performed for each BP measurement.

[3] = Pharmacokinetics and bioavailability, single intravenous or oral doses, partial Latin square crossover; assay type: in vivo, male cynomolgus monkeys; details: male, cynomolgus monkey, plasma; intravenous; title 5 mg/kg, text 2 mg/kg; n=6
[4] = test system: human umbilical vein endothelial cells (HUVEC); test: Nitric oxide production (nitrite+nitrate) in NAS-treated HUVEC; assay type: cell-based; details: for NO production (nitrite+nitrate): 5-22 hours treatment; for effect (response) relative to that of free BH4: 5 to 22 hours exposure
Method: Cultured human umbilical vein endothelial cells (HUVEC) were pretreated with 3 mM N-acetylserotonin (NAS), an inhibitor of the enzyme sepiapterin reductase. Inhibition of this pathway typically results in loss of endogenous BH4, depressing the endogenous eNOS activity far below normal and provides an assay to test for restoration of eNOS activity.
Thus, subconfluent HUVECs were seeded in a 24-well plate and grown overnight in EGM2 medium (full growth medium). The next morning, fresh medium was added to the cells (300 μL/well), 3 mM N-acetylserotonin (NAS), an inhibitor of the enzyme sepiapterin reductase (a member of the synthesis pathway for endogenous BH4) was added to the cells to decrease the endogenous BH4 levels. After an incubation of 1.5 hours, 50, 100, or […] BH4 or compound of Example 5, Example 6, Example 7, or Example 9 were added to the cells. The cells were allowed to react with the BH4 or the compound of Example 5, Example 7, or Example 9 for 5-22 hours. The production of NO was then measured as changes in total (nitrite+nitrate) by the Griess reaction subsequent to nitrate reductase treatment. 90 μL of reaction mixture (25 mM Tris-HCL, pH7.4, 1 μM FAD, 1 μM FMN, 100 μM L-Arginin 2.5 mM CaCl2, 1 mM NADPH, 0.04 mg/ml Calmodulin) was mixed with 5 μl of eNOS (15 units/ml) and 5 μl of BH4 or BH4 analogs (1, 10, 100 μM), followed by incubation in a 37° C. water bath for 90 minutes. Then 100 μl of water and 20 μl of the nitrite fluorescent probe DAN (2,3-diaminonaphthalene, 316 μM) were added to each reaction and incubated at room temperature for 10 minutes. The dye DAN reacts with nitrite to yield the fluorescent product naphthotriazole. The reaction was then stopped by adding 10 μl of NaOH (2.8 M), and the fluorescence of the samples was read using excitation frequency 375 nm and emission frequency 415 nm. The percentage of nitrite+nitrate with BH4 or compound of Example 5, Example 7, or Example 9 is shown in FIG. 17 (after 5 hours); FIG. 18 (after 17 hours); and FIG. 19 (after 22 hours). The results for Example 6 are shown in FIG. 20 (after 5 hours) and FIG. 21 (after 20 hours).

[5] = Stability in human plasma; assay type: in vitro ADME; details: over a 60 minute period, compound remaining
Method: (§1) The stability of various compounds as disclosed herein was tested in human and rat and in simulated gastric fluid. Each compound was tested over an hour period for concentration of the compound remaining at each time point. The results are shown in FIGS. 3 (human plasma stability), 4 (rat plasma stability), and 5 (simulated gastric fluid stability) for the compounds of Example 2, 3, 4, and 20.

Stability in rat plasma = assay type: in vitro ADME; details: over a 60 minute period, compound remaining
Method: as §1

[6] = Stability in simulated gastric fluid; assay type: in vitro ADME; details: over a 60 minute period, compound remaining
Method: as §1

[7] = male, cynomolgus monkey, plasma

Row | SMILES | potentiation of eNOS activity (eNOS) | NO production (nitrite+nitrate) [4] | effect (response) relative to that of free BH4 [4] | stability in human plasma [5] | stability in rat plasma (Stability in rat plasma) | stability in simulated gastric fluid [6] | other results
1 | C[C@H](O)[C@H](O)[C@H]1CNc2nc(N)[nH]c(=O)c2N1 [BH4, Tetrahydrobiopterin, reference compound] | did potentiate eNOS activity in a dose-dependent manner |  |  |  |  |  | bioavailability ([1]; male, cynomolgus monkey, plasma, po, 40 mg/kg, based on 6R-BH4 IV, read-out: Absolute Bioavailability, BH4): 9.8%; AUC(0-inf) [1, 7]: 13.4 µM·h; AUC(0-t) [1, 7]: 11.9 µM·h; Cmax [1, 7]: 2.33 µM; Tmax [1, 7]: 3.7 h; half-life [1, 7]: 5.9 h; Absolute Bioavailability, BH4 ([1]; based on 6R-BH4 IV, 40 mg/kg): 9.2 (4.2) %; lowering of systolic blood pressure (SBP) ([2]; SHR, 100 mg/kg/day oral gavage, after 3 weeks, vs vehicle): about 8.4 mmHg; blood pressure of SHR ([2]; previous studies, 10, 100, and 500 mg/kg/day, two weeks of oral administration): reduced the blood pressure; AUC(0-inf) [3]: 6.96 µM·h; AUC(0-t) [3]: 6.76 µM·h; Cmax [3]: 7.05 µM; Tmax [3]: 6.6 min
2 | C[C@H](OC(=O)[C@@H](N)CCCCN)[C@H](O)[C@H]1CNc2nc(N)[nH]c(=O)c2N1 [Example 7, 2,6-Diamino-hexanoic acid 2-(2-amino-4-oxo-3,4,5,6,7,8-hexahydro-pteridin-6-yl)-2-hydroxy-1-methyl-ethyl ester tri-hydrochloride] | slight effect on eNOS activity | increased NO production in a dose-dependent manner | similar, if slightly reduced, effect |  |  |  | 
3 | C[C@H](O)[C@H](O)[C@H]1CNc2nc(N)[nH]c(=O)c2N1C(=O)OCc1ccccc1 (stereo in doubt) [Example 20, 2-Amino-6-(1,2-dihydroxy-propyl)-4-oxo-4,6,7,8-tetrahydro-1H-pteridine-5-carboxylic acid benzyl ester] |  |  |  | high level of stability | high level of stability | high level of stability | 
4 | C[C@H](OC(=O)[C@@H]1CCCN1)[C@H](O)[C@H]1CNc2nc(N)[nH]c(=O)c2N1 [Example 9, Pyrrolidine-2-carboxylic acid 2-(2-amino-4-oxo-3,4,5,6,7,8-hexahydro-pteridin-6-yl)-2-hydroxy-1-methyl-ethyl ester dihydrochloride] | slight effect on eNOS activity | increased NO production in a dose-dependent manner | similar, if slightly reduced, effect |  |  |  | 
5 | CCCC(=O)O[C@@H]([C@H](C)OC(=O)CCC)[C@H]1CNc2nc(N)[nH]c(=O)c2N1C(=O)CCC [Example 4, Butyric acid 1-(2-amino-5-butyryl-4-oxo-3,4,5,6,7,8-hexahydro-pteridin-6-yl)-2-butyryloxy-propyl ester] |  |  |  | high level of stability | high level of stability | high level of stability | 
6 | CC(=O)O[C@@H]([C@H](C)OC(C)=O)[C@H]1CNc2nc(N)[nH]c(=O)c2N1C(C)=O [Example 2, Acetic acid 2-acetoxy-1-(5-acetyl-2-amino-4-oxo-3,4,5,6,7,8-hexahydro-pteridin-6-yl)-propyl ester] |  |  |  | high level of stability | high level of stability | high level of stability | 
7 | CCC(C)[C@H](N)C(=O)O[C@@H](C)[C@H](O)[C@H]1CNc2nc(N)[nH]c(=O)c2N1 (stereo in doubt) [Example 6, 2-Amino-3-methyl-pentanoic acid 2-(2-amino-4-oxo-3,4,5,6,7,8-hexahydro-pteridin-6-yl)-2-hydroxy-1-methyl-ethyl ester] |  | increased NO production in a dose-dependent manner | similar, if slightly reduced, effect |  |  |  | 
8 | C[C@@H](O)[C@@H](O)[C@H]1CNc2nc(N)[nH]c(=O)c2N1 [Example 6S-BH4, reference compound] | did not significantly potentiate eNOS activity |  |  |  |  |  | 
